From patent US20240199587A1, “HETEROCYCLIC COMPOUNDS” (Hoffmann-La Roche Inc., priority 2021, published 2024)

The molecules below were run against T1, MAGL (Homo sapiens, UniProt Q99685) (assay: 2-AG assay (MAGL inhibitory activity, hydrolysis of 2-arachidonoylglycerol to arachidonic acid followed by mass spectrometry)). Settings: 8 μM 2-arachidonoylglycerol, 15 min pre-incubation, 30 min incubation at RT, RapidFire MS readout.
T1 sequence (Q99685 1-303): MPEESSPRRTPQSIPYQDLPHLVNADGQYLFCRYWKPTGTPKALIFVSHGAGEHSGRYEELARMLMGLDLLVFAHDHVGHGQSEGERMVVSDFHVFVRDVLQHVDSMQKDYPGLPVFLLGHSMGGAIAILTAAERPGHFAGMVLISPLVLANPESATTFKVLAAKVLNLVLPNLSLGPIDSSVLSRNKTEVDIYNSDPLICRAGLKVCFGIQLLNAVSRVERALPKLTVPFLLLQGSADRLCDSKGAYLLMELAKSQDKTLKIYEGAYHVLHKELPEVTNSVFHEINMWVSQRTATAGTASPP
Assay type: biochemical
Procedure, shortened: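 Human MAGL ([…] final) pre-incubated 15 min at RT with compound in 50 mM TRIS, 1 mM EDTA, 0.01% Tween-20, 2.5% DMSO; 8 μM 2-AG then added for 30 min at RT. Acetonitrile quench with d8-arachidonic acid; arachidonic acid measured by RapidFire SPE–MS/MS, activity from arachidonic acid/d8 ratio.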

Row | Compound | IC50 [nM]
1 | O=C(N1CC2(CC(Oc3cc(C(F)(F)F)ncn3)C2)C1)N1CC2(CC(n3cnc(C4CC4)n3)C2)C1 [Example 57, [6-(3-cyclopropyl-1,2,4-triazol-1-yl)-2-azaspiro[3.3]heptan-2-yl]-[6-[6-(trifluoromethyl)pyrimidin-4-yl]oxy-2-azaspiro[3.3]heptan-2-yl]methanone] | 2.5
2 | O=C(N1CC2(CC(Oc3nccc(C(F)(F)F)n3)C2)C1)N1CC2(CC(n3cnc(C4CC4)n3)C2)C1 [Example 58, [6-(3-cyclopropyl-1,2,4-triazol-1-yl)-2-azaspiro[3.3]heptan-2-yl]-[6-[4-(trifluoromethyl)pyrimidin-2-yl]oxy-2-azaspiro[3.3]heptan-2-yl]methanone] | 2.6
3 | O=C(N1CC2(CC(Oc3ccc(F)cc3F)C2)C1)N1CC2(CC(n3cnc(C4CC4)n3)C2)C1 [Example 59, (6-(3-cyclopropyl-1H-1,2,4-triazol-1-yl)-2-azaspiro[3.3]heptan-2-yl)(6-(2,4-difluorophenoxy)-2-azaspiro[3.3]heptan-2-yl)methanone] | 2.6
4 | O=C(N1CC2(CC(Oc3cnc(C(F)(F)F)nc3)C2)C1)N1CC2(CC(n3cnc(C4CC4)n3)C2)C1 [Example 61, (6-(3-cyclopropyl-1H-1,2,4-triazol-1-yl)-2-azaspiro[3.3]heptan-2-yl)(6-((2-(trifluoromethyl)pyrimidin-5-yl)oxy)-2-azaspiro[3.3]heptan-2-yl)methanone] | 5.4
5 | O=C(N1CC2(CC(Oc3ccc(C(F)(F)F)nn3)C2)C1)N1CC2(CC(n3cnc(C4CC4)n3)C2)C1 [Example 62, [6-(3-cyclopropyl-1,2,4-triazol-1-yl)-2-azaspiro[3.3]heptan-2-yl]-[6-[6-(trifluoromethyl)pyridazin-3-yl]oxy-2-azaspiro[3.3]heptan-2-yl]methanone] | 7.2
6 | CC(C)(C)c1nc(-c2ccc(C(=O)N3CC4(CC(n5cnc(C6CC6)c5)C4)C3)cc2)no1 [Example 64, (4-(5-(tert-butyl)-1,2,4-oxadiazol-3-yl)phenyl)(6-(4-cyclopropyl-1H-imidazol-1-yl)-2-azaspiro[3.3]heptan-2-yl)methanone] | 21.7
7 | O=C(N1CC(c2ccc(C3(C(F)(F)F)CC3)cc2)C1)N1CC2(CC(n3ncnc3C3CC3)C2)C1 [Example 67, [6-(5-cyclopropyl-1,2,4-triazol-1-yl)-2-azaspiro13.31heptan-2-yl]−[3-[4-[1-(trifluoromethyl)cyclopropyl]phenyl]azetidin-1-yl]1methanone] | 3170
8 | O=C(N1CC2(CC(Oc3ccc(F)c(F)c3)C2)C1)N1CC2(CC(n3cnc(C4CC4)n3)C2)C1 [Example 68, [6-(3-cyclopropyl-1,2,4-triazol-1-yl)-2-azaspiro[3.3]heptan-2-yl]-[6-(3,4-difluorophenoxy)-2-azaspiro[3.3]heptan-2-yl]methanone] | 0.9
9 | O=C(N1CC2(CC(Oc3cnc(C(F)(F)F)cn3)C2)C1)N1CC2(CC(n3cnc(C4CC4)n3)C2)C1 [Example 70, [6-(3-cyclopropyl-1,2,4-triazol-1-yl)-2-azaspiro[3.3]heptan-2-yl]-[6-[5-(trifluoromethyl)pyrazin-2-yl]oxy-2-azaspiro[3.3]heptan-2-yl]methanone] | 2.1
10 | O=C(N1CC(OCc2ccc(OC(F)(F)F)cc2)C1)N1CC2(CC(n3cnc(C4CC4)n3)C2)C1 [Example 71, (6-(3-cyclopropyl-1H-1,2,4-triazol-1-yl)-2-azaspiro[3.3]heptan-2-yl)(3-((4-(trifluoromethoxy)ben-zyl)oxy)azetidin-1-yl)methanone] | 7.1
11 | O=C(N1CC(OCc2ccc(C(F)(F)F)cc2)C1)N1CC2(CC(n3cnc(C4CC4)n3)C2)C1 [Example 72, (6-(3-cyclopropyl-1H-1,2,4-triazol-1-yl)-2-azaspiro[3.3]heptan-2-yl)(3-((4-(trifluoromethyl)benzyl)oxy)azetidin-1-yl)methanone] | 3.9
12 | O=C(N1CC(OCc2cc(C(F)(F)F)ccc2F)C1)N1CC2(CC(n3cnc(C4CC4)n3)C2)C1 [Example 73, (6-(3-cyclopropyl-1H-1,2,4-triazol-1-yl)-2-azaspiro[3.3]heptan-2-yl)(3-((2-fluoro-5-(trifluoromethyl)benzyl)oxy)azetidin-1-yl)methanone] | 8.2
13 | O=C(N1CC(OCc2ccc(OC(F)(F)F)cc2F)C1)N1CC2(CC(n3cnc(C4CC4)n3)C2)C1 [Example 75, (6-(3-cyclopropyl-1H-1,2,4-triazol-1-yl)-2-azaspiro[3.3]heptan-2-yl)(3-((2-fluoro-4-(trifluoromethoxy)ben-zyl)oxy)azetidin-1-yl)methanone] | 2.7
14 | O=C(N1CC(OCc2ccc(F)cc2C(F)(F)F)C1)N1CC2(CC(n3cnc(C4CC4)n3)C2)C1 [Example 78, (6-(3-cyclopropyl-1H-1,2,4-triazol-1-yl)-2-azaspiro[3.3]heptan-2-yl)(3-((4-fluoro-2-(trifluoromethyl)benzyl)oxy)azetidin-1-yl)methanone] | 12.2
15 | O=C(N1CC2(CC(Oc3cncc(C(F)(F)F)c3)C2)C1)N1CC2(CC(n3cnc(C4CC4)n3)C2)C1 [Example 81, (6-(3-cyclopropyl-1H-1,2,4-triazol-1-yl)-2-azaspiro[3.3]heptan-2-yl)(6-((5-(trifluoromethyl)pyridin-3-yl)oxy)-2-azaspiro[3.3]heptan-2-yl)methanone] | 1.8
16 | O=C(N1CC2(CC(Oc3ccc(Cl)nc3)C2)C1)N1CC2(CC(n3cnc(C4CC4)n3)C2)C1 [Example 83, (6-((6-chloropyridin-3-yl)oxy)-2-azaspiro[3.3]heptan-2-yl)(6-(3-cyclopropyl-1H-1,2,4-triazol-1-yl)-2-azaspiro[3.3]heptan-2-yl)methanone] | 5.2

The remaining molecules from weak to strong by IC50, led by results:

Row | IC50 [nM] | Compound
17 | 160 | O=C(N1CC(OCc2ccc(C(F)(F)F)c(F)c2)C1)N1CC2(CC(n3cnc(C4CC4)n3)C2)C1 [Example 74, (6-(3-cyclopropyl-1H-1,2,4-triazol-1-yl)-2-azaspiro[3.3]heptan-2-yl)(3-((3-fluoro-4-(trifluoromethyl)benzyl)oxy)azetidin-1-yl)methanone]
18 | 159 | Cn1ccc(OC2CC3(C2)CN(C(=O)N2CC4(CC(n5cnc(C6CC6)n5)C4)C2)C3)cc1=O [Example 66, 4-[[2-[6-(3-cyclopropyl-1,2,4-triazol-1-yl)-2-azaspiro[3.3]heptane-2-carbonyl]-2-azaspiro[3.3]heptan-6-yl]oxy]-1-methyl-pyridin-2-one]
19 | 83.2 | O=C(N1CC2(CC(OCC(F)(F)F)C2)C1)N1CC2(CC(n3cnc(C4CC4)n3)C2)C1 [Example 65, [6-(3-cyclopropyl-1,2,4-triazol-1-yl)-2-azaspiro[3.3]heptan-2-yl]-[6-(2,2,2-trifluoroethoxy)-2-azaspiro[3.3]heptan-2-yl]methanone]
20 | 19.8 | O=C(N1CC2(CC(Oc3cncc(F)c3)C2)C1)N1CC2(CC(n3cnc(C4CC4)n3)C2)C1 [Example 63, (6-(3-cyclopropyl-1H-1,2,4-triazol-1-yl)-2-azaspiro[3.3]heptan-2-yl)(6-((5-fluoropyridin-3-yl)oxy)-2-azaspiro[3.3]heptan-2-yl)methanone]
21 | 9.2 | O=C(N1CC(OCc2ccc(F)cc2Cl)C1)N1CC2(CC(n3cnc(C4CC4)n3)C2)C1 [Example 77, (3-((2-chloro-4-fluorobenzyl)oxy)azetidin-1-yl)(6-(3-cyclopropyl-1H-1,2,4-triazol-1-yl)-2-azaspiro[3.3]heptan-2-yl)methanone]
22 | 5.3 | COc1ccc(OC2CC3(C2)CN(C(=O)N2CC4(CC(n5cnc(C6CC6)n5)C4)C2)C3)cn1 [Example 60, (6-(3-cyclopropyl-1H-1,2,4-triazol-1-yl)-2-azaspiro[3.3]heptan-2-yl)(6-((6-methoxypyridin-3-yl)oxy)-2-azaspiro[3.3]heptan-2-yl)methanone]
23 | 3.7 | O=C(N1CC2(CC(Oc3cncc(Cl)c3)C2)C1)N1CC2(CC(n3cnc(C4CC4)n3)C2)C1 [Example 82, (6-((5-chloropyridin-3-yl)oxy)-2-azaspiro[3.3]heptan-2-yl)(6-(3-cyclopropyl-1H-1,2,4-triazol-1-yl)-2-azaspiro[3.3]heptan-2-yl)methanone]
24 | 2.5 | O=C(N1CC2(CC(Oc3ccc(OC(F)F)nc3)C2)C1)N1CC2(CC(n3cnc(C4CC4)n3)C2)C1 [Example 56, (6-(3-cyclopropyl-1H-1,2,4-triazol-1-yl)-2-azaspiro[3.3]heptan-2-yl)(6-((6-(difluoromethoxy)pyridin-3-yl)oxy)-2-azaspiro[3.3]heptan-2-yl)methanone]
25 | 2.2 | O=C(N1CC(OCc2cc(F)cc(C(F)(F)F)c2)C1)N1CC2(CC(n3cnc(C4CC4)n3)C2)C1 [Example 76, (6-(3-cyclopropyl-1H-1,2,4-triazol-1-yl)-2-azaspiro[3.3]heptan-2-yl)(3-((3-fluoro-5-(trifluoromethyl)benzyl)oxy)azetidin-1-yl)methanone]
26 | 2.2 | O=C(N1CC2(CC(Oc3ccc(C(F)(F)F)nc3)C2)C1)N1CC2(CC(n3cnc(C4CC4)n3)C2)C1 [Example 80, (6-(3-cyclopropyl-1H-1,2,4-triazol-1-yl)-2-azaspiro[3.3]heptan-2-yl)(6-((6-(trifluoromethyl)pyridin-3-yl)oxy)-2-azaspiro[3.3]heptan-2-yl)methanone]
27 | 2 | O=C(N1CC(c2ccc(OC(F)(F)F)c(Cl)c2)C1)N1CC2(CC(n3cnc(C4CC4)c3)C2)C1 [Example 69]
28 | 1.3 | O=C(N1CC2(CC(Oc3cc(F)ccc3F)C2)C1)N1CC2(CC(n3cnc(C4CC4)n3)C2)C1 [Example 79, (6-(3-cyclopropyl-1H-1,2,4-triazol-1-yl)-2-azaspiro[3.3]heptan-2-yl)(6-(2,5-difluorophenoxy)-2-azaspiro[3.3]heptan-2-yl)methanone]
